One series has as its system CT-26 colon cancer cells. Briefly: MTT antiproliferative assay, CT-26. It counts as cell-based, murine. Particulars: CT-26, MTT, 48 h incubation. On the procedure:
(§1) Murine colon cancer CT-26 (ATCC® CRL-263™) cells were cultured in RPMI-1640, supplemented with 10% foetal bovine serum (FBS) and 100 IU/mL of penicillin and 100 μg/mL streptomycin (Gibco, Thermo Fisher Scientific, Waltham, MA, USA), hereafter designated as complete culture medium. Human colon cancer HCT-116 (ATCC® CCL-247™), human melanoma A375 (ATCC® CCL-1619™), murine melanoma B16F10 (ATCC® CCL-6475™) cells and human epidermal keratinocytes (HaCaT) were maintained in Dulbecco’s modified Eagle’s medium (DMEM) with high-glucose (4500 mg/L) (Sigma-Aldrich, St. Louis, MO, USA), supplemented with 10% FBS and 100 IU/mL of penicillin and 100 μg/mL streptomycin (Gibco, Thermo Fisher Scientific, Waltham, MA, USA), also designated as complete culture medium. The cell lines were maintained at 37 °C in a 5% CO2 environment and cells were trypsinised every 2–3 days when 80% confluence was reached.
(§2) Negative controls were cells maintained in complete culture medium.
(Tetrazolium assays rely on reduction of a dye to a coloured formazan, in cell work by metabolically active cells.)

The test system of series [1] is HCT-116 colon cancer cells. Briefly: MTT antiproliferative assay, HCT-116. It counts as cell-based, human. Particulars: HCT-116, MTT, 48 h incubation. On the procedure:
as §1, §2

In a further series the test system is CT-26 cells. Briefly: Cell cycle analysis by PI flow cytometry, CT-26. It counts as cell-based, murine. As to conditions: CT-26, 24 h, sub-toxic concentrations. On the procedure:
(§3) To understand the potential effects of [Ni(HL)(acetate)] and [Ru(HL)Cl(DMSO)] on cell cycle progression, CT-26 and HCT-116 cells were used. Briefly, cells were plated at a density of 5 × 10^4 cells/mL in 6-well plates (2 mL) and allowed to grow for 24 h at 37 °C with 5% CO2. CT-26 cells were then incubated with [Ni(HL)(acetate)] or [Ru(HL)Cl(DMSO)] at concentrations of 5 and 10 μM or 10 and 20 μM, respectively. For HCT-116 cell line, the tested concentrations were 5 and 7.5 μM, and 7.5 and 12.5 μM for [Ni(HL)(acetate)] and [Ru(HL)Cl(DMSO)], respectively. The positive control group, 5-FU, was tested at 0.5 and 2 μM and 20 and 40 μM for CT-26 and HCT-116, respectively. Negative control group was constituted by cells in the presence of complete culture medium. After a 24 h incubation period, cells were collected by centrifugation at 850× g for 5 min at 4 °C, suspended in 500 µL of ice-cold PBS, and fixed with 500 µL ice-cold 80% ethanol (−20 °C), added drop-by-drop, under gentle mixing. Prior to the analysis, samples were kept at 4 °C for at least 16 h. […] The ModFit LT™ 5.0 software was used to analyse the data and the percentages of cells in each cell cycle phase was determined (Verity Software House, Topsham, ME, USA).
In general terms: A flow cytometer gives signals particle by particle.

Series [2] concerns HCT-116 cells. The experiment in a line: Cell cycle analysis by PI flow cytometry, HCT-116. It counts as cell-based, human. As to conditions: HCT-116, 24 h, sub-toxic concentrations. On the procedure: as §3
For series [3], the system named is HCT-116 cells. Briefly: Wound-healing migration assay, HCT-116. It counts as cell-based, human. As to conditions: HCT-116, 12.5 μM, at 22 h (control 50%). On the procedure:
To assess cellular migration in the presence or absence of tested compounds, HCT-116 and CT-26 cells were plated at 1.5 × 10^5 and 3 × 10^5 cells/mL in a 12-well plate (1 mL/well) and were allowed to adhere and grow until reaching around 80–90% confluence. A sterile 10 μL pipette tip was used to wound the cell monolayer, followed by a washing step with PBS to remove debris. Then, cells were incubated with the tested compounds suspended in RPMI-1640 (CT-26) or DMEM media (HCT-116) supplemented with 2% FBS and 100 IU/mL of penicillin and 100 μg/mL streptomycin (Gibco, Thermo Fisher Scientific, Waltham, MA, USA), and hereafter designated as RPMI 2% and DMEM 2%, respectively. Under the above mentioned culture conditions, CT-26 cells were incubated with [Ni(HL)(acetate)] or [Ru(HL)Cl(DMSO)] at concentrations of 10 and 15 μM, respectively. […] The positive control, 5-FU, was tested at 1.5 and 40 μM for CT-26 and HCT-116, respectively. Negative control group was constituted by cells maintained in RPMI 2% (CT-26) and DMEM 2% (HCT-116). Images of the wound closure were taken beneath the stage of a Zeiss Axiovert 200 inverted microscope, using a 10× objective and a digital camera (CoolSNAP EZ, Photometrics, Huntington Beach, CA, USA) and recorded by the Metafluor Software at 0, 2, 4, 8, 18, 20 and 22 h following cell monolayer scratching (Molecular Devices, Sunnyvale, CA, USA). […]

For series [4], the target named is bovine serum albumin (BSA) (Bos taurus, UniProt P02769). The experiment in a line: Albumin binding by fluorescence quenching and circular dichroism. Particulars: BSA ca. 20–25 μM, bands centred at ca. 360 nm, compound 5 to 70 μM. On the procedure: The concentration of BSA in the experiments was ca. 1.5 μM (in aqueous PBS). The fluorescence emission spectra were recorded between 310 and 575 nm, with λex = 295 nm. Successive additions of the complexes were done directly to the cuvette (optical path 1 cm) and the fluorescence emission spectra were recorded for each one under the same conditions. Blank assays for each sample, consisting in solutions with the same concentration of complex and no BSA, were recorded and subtracted to the corresponding emission spectra containing the fluorophore. The UV-vis spectra of the sample solutions were used to correct the emission spectra, minimizing inner filter and reabsorption phenomena interference.
Sequence of bovine serum albumin (BSA) (P02769 25-607): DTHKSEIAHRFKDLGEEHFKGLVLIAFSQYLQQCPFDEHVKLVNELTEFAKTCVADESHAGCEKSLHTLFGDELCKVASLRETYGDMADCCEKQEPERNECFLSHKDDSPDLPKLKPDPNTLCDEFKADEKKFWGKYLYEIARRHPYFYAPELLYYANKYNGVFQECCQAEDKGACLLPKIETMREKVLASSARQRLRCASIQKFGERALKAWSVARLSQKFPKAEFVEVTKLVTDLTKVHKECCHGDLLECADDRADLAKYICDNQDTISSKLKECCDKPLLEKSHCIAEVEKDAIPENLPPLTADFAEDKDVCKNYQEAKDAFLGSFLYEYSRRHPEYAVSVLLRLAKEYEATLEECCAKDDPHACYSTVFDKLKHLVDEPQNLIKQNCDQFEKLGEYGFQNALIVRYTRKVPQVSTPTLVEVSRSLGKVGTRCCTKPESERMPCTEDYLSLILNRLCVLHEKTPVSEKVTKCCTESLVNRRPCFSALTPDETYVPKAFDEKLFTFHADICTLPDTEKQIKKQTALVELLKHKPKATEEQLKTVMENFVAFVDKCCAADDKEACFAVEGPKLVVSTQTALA
The concentration of BSA in the experiments was ca. 20–25 μM (in aqueous PBS). The circular dichroism (CD) spectra are an average of three scan accumulations, recorded between 300 and 500 nm, with bandwidth of 1 nm and response of 2 s, using a scanning speed of 100 nm/min. Successive additions of the complexes stock solutions in DMSO were done directly to the cuvette (1 cm) and the CD spectra were recorded under the same conditions after 10 min equilibration. Induced CD spectra were obtained as the CD spectrum of compound-BSA mixture minus the CD spectrum of BSA alone and are expressed as ellipticity in millidegrees.
Background: Circular dichroism is widely used to follow secondary structure.

A short description of series [5]: Shake-flask n-octanol/buffer distribution coefficient (D7.4). It counts as physicochemical. As to conditions: n-octanol/buffered aqueous solution, 25 °C, read-out: logD7.4. On the procedure:
The distribution coefficient values (D7.4) of the compounds were determined by the traditional shake-flask method in n-octanol/buffered aqueous solution at pH 7.40 (10 mM HEPES buffer, in the absence or in the presence of 0.10 M KCl) at 25.0 ± 0.2 °C. The samples and stock solutions were protected from light until the spectrophotometric concentration determination. The ligand and complex were dissolved at 150 and 100 μM concentrations in n-octanol, respectively. n-Octanol was presaturated with the HEPES solution with the given KCl concentration. The aqueous solution and n-octanol ratio was 9:1 (instead of the usual 1:1 ratio due to the high lipophilicity of the compounds). […] After separation, UV-vis spectra of the compounds in the n-octanol phase were recorded and compared to the spectra of the n-octanol stock solution. D7.4 values were calculated as in the following Equation (1): (1) D7.4=Aoct,1/Aoct,0−Aoct,1×Vwater phase/Voctanol phase where Aoct,0 and Aoct,1 are the absorbance values of the n-octanol phase before and after separation, respectively, Vwater phase and Voctanol phase are the volumes of the two phases.
The distribution coefficients (D7.4) for H2L and the Ru-complex (as model complex) were determined using HEPES buffer (pH = 7.4) for the aqueous phase. Distribution was measured in the absence and presence of 100 mM KCl. […]

Series [6] can be described thus: UV-vis spectrophotometric titration for proton dissociation constants. It counts as physicochemical. As to conditions: for pKa: 60% (v/v) DMSO/H2O solvent mixture, 60% (v/v) DMSO/H2O, I = 0.10 M (KCl), 25 °C. On the procedure: The pH-potentiometric titrations for the calibration of the electrode system were performed in 30% (v/v) and 60% (v/v) DMSO/H2O solvent mixtures using 0.10 M KCl background electrolyte at 25.0 ± 0.1 °C as described in our previous works.
A Thermo Evolution 220 spectrophotometer was used to record the UV-visible (UV-vis) spectra in the 260 to 750 nm window. The path length was varied between 2 and 50 mm. As a result of the limited solubility of the compounds in water, the spectrophotometric titrations were performed to determine the proton dissociation constants (pKa) of the ligand and its complex at 5 μM concentration using 5 cm path length. Due to the light sensitivity of the studied compounds, the samples were covered and were kept in the dark during the titrations. The starting sample volume was 50 mL. These titrations were performed in the pH range 2.0–12.5 (30% (v/v) DMSO/H2O) and 2.0–14.0 (60% (v/v) DMSO/H2O). Samples were deoxygenated by bubbling purified argon through them for approximately 10 min prior to the measurements and argon was also passed over the solutions during the spectrophotometric titrations. Calculation of the proton dissociation constants was performed with the computer program PSEQUAD [28].
Titrations were performed first in 30% (v/v) DMSO/H2O mixture due to the limited water solubility of the ligand. The sample was protected from light and, for a given portion of the sample, the UV-vis spectrum was recorded only once. […] Following this experiment, the titration was repeated in 60% (v/v) DMSO/H2O mixture (Figure 7), and no precipitation was found in the whole pH range (1.73−13.67) under this condition. However, only three deprotonation steps were observed, most probably because one of the deprotonation steps was already completed at the starting pH.
To elucidate the pKa assignment, 2-hydrazinobenzothiazole (considered as a fragment of the title ligand) was titrated under similar conditions to monitor the spectral changes during the deprotonation of the benzothiazole moiety.

The nature of series [7]: Light sensitivity in DMSO (UV-vis). It counts as physicochemical. On the procedure: For the light sensitivity studies, DMSO solutions were prepared. The starting sample was separated equally for more portions, one was irradiated with diffuse light, while other portions were stored in the dark and measured only once.
The light sensitivity of H2L and its Ru-complex (as model metal compound) were tested by UV-vis spectrophotometry to further understand their behaviour. Samples were dissolved in DMSO and stored in the dark, while one portion was irradiated continuously by diffuse light. […] A relatively fast change is observed for the ligand in the first 1.5 h, and after that the spectrum has only minor changes (Figure 4A). […] Figure S16 depicts the spectral changes visible in Figure 4B. […] In the ligand, this may be due to a photoisomerisation process of the imine bond (Z/E isomers), which is quite common in hydrazones), but not in the Ru-complex, unless what is being observed in the complex solution is due to unbound ligand molecules.

Series [8] concerns HCT-116, A375, CT-26, B16F10 and HaCaT cell lines. Briefly: Preliminary MTT antiproliferative screening on cell line panel. As to conditions: 20 and 40 μM, 48 h.
Protocol: The MTT [32] and Guava ViaCount assays [33, 34] were used to assess cell viability in the absence (negative control) or presence of increasing concentrations of [Ni(HL)(acetate)], [Ru(HL)Cl(DMSO)] and 5-FU (positive control). Briefly, cells were plated at a concentration of 5 × 10^4 cells/mL in 96-well plates (200 μL/well) and cultured for 24 h in the culture conditions described above. Afterwards, supernatant was removed, and cells were incubated with [Ni(HL)(acetate)] and [Ru(HL)Cl(DMSO)] at concentrations ranging from 0.5 to 40 μM or from 0.5 to 100 μM for the 5-FU (positive control). Negative controls were cells maintained in complete culture medium. After 48 h, culture medium was discarded, cells were washed twice with PBS and 50 μL of MTT at 0.5 mg/mL in incomplete medium was added to all wells. After a 2 to 3 h incubation period at 37 °C and 5% CO2 environment, 100 μL DMSO was added to each well to solubilise the formazan crystals, and absorbance was measured at 570 nm using a microplate reader Model 680 (Bio-Rad, CA, USA). Between three to four independent experiments were carried out, with six replicates per condition. GraphPad Prism®8 (GraphPad Software, San Diego, CA, USA) was used to analyse cell proliferation and values were plotted and fit to a standard log dose-response curve. The IC50 values were calculated using Equation (2) [35]:log IC50 = log X1 + {[(Y1 − (Y0)/2)]/(Y1 − Y2)} × (log X2 − log X1)(2) where, Y0/2 is the half-cell density of the negative control; Y1 is the cell density above Y0/2; X1 is the concentration corresponding to Y1; Y2 is the cell density below Y0/2; X2 is the concentration corresponding to Y2. The IC50 was determined by linear interpolation between X1 and X2.
Thus, to evaluate the antiproliferative properties of the newly synthetised metal complexes, a preliminary screening was performed using human (HCT-116 and A375) and murine (CT-26 and B16F10) colon cancer and melanoma cell lines, respectively. […]

The structures appear in SMILES notation. Where two headings read alike, the source gives them in different places.

One may read the IC50 as the concentration that inhibits the measured activity by half. A lower IC50 goes with inhibition by little substance. For the compound `CC(=O)[O][Ni][O]c1cccc2ccc(C=NNc3nc4ccccc4s3)nc12` [[Ni(HL)(acetate)]], the IC50 was found to be 11 ± 2.3 µM in the series with CT-26 colon cancer cells and 8.6 ± 2 µM in series [1]. In addition, the cell cycle arrest entry with CT-26 cells is “arrested cell cycle at S phase”; in the series on HCT-116 cells [2], “no such effect”. This compound also yielded a maximum wound closure in the series on HCT-116 cells [3] of 32%. Further, the “induced CD bands with BSA” value in series [4] is listed as “high intensity induced CD bands”.

For `Oc1cccc2ccc(/C=N/Nc3nc4ccccc4s3)nc12` [H2L, (E)-2-((2-(benzo[d]thiazol-2-yl)Hydrazono)Methyl)Quinolin-8-ol], the logD at 4 h was 2.8 in series [5] (pH 7.4, n-octanol/10 mM HEPES pH 7.4, 0 mM KCl) and 3 in [5] (pH 7.4, n-octanol/10 mM HEPES pH 7.4, 100 mM KCl). Also, the “pH range of precipitation” value in series [6] (30% (v/v) DMSO/H2O, 5 μM) was 3.8−11.0. Further, the pKa in series [6] (read-out: pKa2) turned out to be 1.99 ± 0.03; in series [6] (read-out: pKa3), 9.09 ± 0.04; in [6] (read-out: pKa4), 12.99 ± 0.04. In addition, the IC50 in the series on CT-26 colon cancer cells (Mus musculus, CT26) turned out to be 1.8 ± 0.4 µM; in [1] (Homo sapiens), 3 ± 0.8 µM. Further, the light sensitivity entry in series [7] (irradiated continuously by diffuse light) was “strong light sensitivity”. Besides, the “spectral changes in the dark” value in series [7] (stored in the dark, 4 days of monitoring) is recorded as “only a small change”. In addition, the “induced CD bands with BSA” value in series [4] is reported as “high intensity induced CD bands”. For the same compound, the “antiproliferative / cytotoxic effect in preliminary screening” value (“antiproliferative / cytotoxic effect” for short) in [8] was “high cytotoxicity”.

In the case of `O=Cc1ccc2cccc(O)c2n1` [HQ2CHO, 2-carbaldehyde-8-hydroxyquinoline], the “antiproliferative / cytotoxic effect” value in series [8] is “cytotoxicity against the human melanoma and colon cancer cell lines”.

With `NNc1nc2ccccc2s1` [2-Hydrazinobenzothiazole, 2-hydrazinobenzothiazole, reference compound], the pKa in series [6] (read-out: pKa2) turned out to be 3.35 ± 0.03; in series [6] (read-out: pKa3), 10.35 ± 0.03; in series [6] (read-out: pKa4), 12.86 ± 0.03. In series [8], the “antiproliferative / cytotoxic effect” value was “no effect”.

For the origin of these results see PMC9785144, “Metal Coordination and Biological Screening of a Schiff Base Derived from 8-Hydroxyquinoline and Benzothiazole” (Pharmaceutics, 2022).
